Measurements reported in PubChem BioAssay AID1259407 (Chemical Carcinogenesis Research Information System (CCRIS), 2018).
Activity calls are given as the source filed them. The rule behind the calls is not given here.

Test system: CCRIS mutagenicity, Ames/micronucleus/aberration tests
Assay: CCRIS mutagenicity studies
[1] = Test System: AMES SALMONELLA TYPHIMURIUM, Strain/Indicator: TA98, Metabolic Activation: NONE, Method: PREINCUBATION
[2] = Test System: AMES SALMONELLA TYPHIMURIUM, Strain/Indicator: TA100, Metabolic Activation: NONE, Method: PREINCUBATION
[3] = Test System: AMES SALMONELLA TYPHIMURIUM, Strain/Indicator: TA1535, Metabolic Activation: NONE, Method: PREINCUBATION
[4] = Test System: AMES SALMONELLA TYPHIMURIUM, Strain/Indicator: TA1537, Metabolic Activation: NONE, Method: PREINCUBATION
[5] = Test System: AMES SALMONELLA TYPHIMURIUM, Strain/Indicator: TA98, Metabolic Activation: RAT, LIVER, S-9, AROCLOR 1254, Method: STANDARD PLATE
[6] = Test System: AMES SALMONELLA TYPHIMURIUM, Strain/Indicator: TA100, Metabolic Activation: RAT, LIVER, S-9, AROCLOR 1254, Method: STANDARD PLATE
[7] = Test System: AMES SALMONELLA TYPHIMURIUM, Strain/Indicator: TA100, Metabolic Activation: NONE, Method: STANDARD PLATE
[8] = Test System: AMES SALMONELLA TYPHIMURIUM, Strain/Indicator: TA98, Metabolic Activation: NONE, Method: STANDARD PLATE

COCCOC(C)=O was tested, and the mutagenic call (End Point: IN VITRO CHROMOSOMAL ABERRATIONS, Test System: CHO-LB CELLS, Metabolic Activation: NONE) was “inactive; negative”, the mutagenic call (End Point: IN VITRO CHROMOSOMAL ABERRATIONS, Test System: CHO-LB CELLS, Metabolic Activation: RAT, LIVER, S-9, AROCLOR 1254) was “active; positive” and the mutagenic call (Test System: AMES SALMONELLA TYPHIMURIUM, Strain/Indicator: TA97, Metabolic Activation: HAMSTER, LIVER, S-9, AROCLOR 1254 (10 OR 30%), Method: PREINCUBATION) was “inactive; negative”. The mutagenic call (Test System: AMES SALMONELLA TYPHIMURIUM, Strain/Indicator: TA97, Metabolic Activation: NONE, Method: PREINCUBATION) was “inactive; negative”, the mutagenic call (Test System: AMES SALMONELLA TYPHIMURIUM, Strain/Indicator: TA97, Metabolic Activation: RAT, LIVER, S-9, AROCLOR 1254 (10 OR 30%), Method: PREINCUBATION) was “inactive; negative” and the mutagenic call (Test System: AMES SALMONELLA TYPHIMURIUM, Strain/Indicator: TA98, Metabolic Activation: HAMSTER, LIVER, S-9, AROCLOR 1254 (10 OR 30%), Method: PREINCUBATION) was “inactive; negative”. The mutagenic call [1] was “inactive; negative”, the mutagenic call (Test System: AMES SALMONELLA TYPHIMURIUM, Strain/Indicator: TA98, Metabolic Activation: RAT, LIVER, S-9, AROCLOR 1254 (10 OR 30%), Method: PREINCUBATION) was “inactive; negative” and the mutagenic call (Test System: AMES SALMONELLA TYPHIMURIUM, Strain/Indicator: TA100, Metabolic Activation: HAMSTER, LIVER, S-9, AROCLOR 1254 (10 OR 30%), Method: PREINCUBATION) was “inactive; negative”. The mutagenic call [2] was “inactive; negative”, the mutagenic call (Test System: AMES SALMONELLA TYPHIMURIUM, Strain/Indicator: TA100, Metabolic Activation: RAT, LIVER, S-9, AROCLOR 1254 (10 OR 30%), Method: PREINCUBATION) was “inactive; negative” and the mutagenic call (Test System: AMES SALMONELLA TYPHIMURIUM, Strain/Indicator: TA1535, Metabolic Activation: HAMSTER, LIVER, S-9, AROCLOR 1254 (10 OR 30%), Method: PREINCUBATION) was “inactive; negative”. The mutagenic call [3] was “inactive; negative”, the mutagenic call (Test System: AMES SALMONELLA TYPHIMURIUM, Strain/Indicator: TA1535, Metabolic Activation: RAT, LIVER, S-9, AROCLOR 1254 (10 OR 30%), Method: PREINCUBATION) was “inactive; negative” and the mutagenic call (Test System: AMES SALMONELLA TYPHIMURIUM, Strain/Indicator: TA1537, Metabolic Activation: HAMSTER, LIVER, S-9, AROCLOR 1254 (30%), Method: PREINCUBATION) was “inactive; negative”. The mutagenic call [4] was “inactive; negative” and the mutagenic call (Test System: AMES SALMONELLA TYPHIMURIUM, Strain/Indicator: TA1537, Metabolic Activation: RAT, LIVER, S-9, AROCLOR 1254 (30%), Method: PREINCUBATION) was “inactive; negative”.

With CSc1cc(SC)c(N)c(C)c1N the mutagenic call [5] was “active; positive”.

With Cc1ccc2nc3c4c(ccc3c(CO)c2c1)[C@H](O)[C@@H](O)C=C4 the mutagenic call [6] was “active; positive”.

For O=C(CBr)Nc1ccccc1, the mutagenic call (Test System: AMES SALMONELLA TYPHIMURIUM, Strain/Indicator: TA100, Metabolic Activation: MOUSE, LIVER, S-9, AROCLOR 1254, Method: STANDARD PLATE) was “inactive; negative” and the mutagenic call [7] was “inactive; negative”.

In the case of CN(C)C(=S)N(C)C, the mutagenic call (Test System: AMES SALMONELLA TYPHIMURIUM, Strain/Indicator: TA98, Metabolic Activation: HAMSTER, LIVER, S-9, AROCLOR 1254 (10%), Method: PREINCUBATION) is reported as “inactive; negative”, the mutagenic call [1] is reported as “inactive; negative” and the mutagenic call (Test System: AMES SALMONELLA TYPHIMURIUM, Strain/Indicator: TA98, Metabolic Activation: RAT, LIVER, S-9, AROCLOR 1254 (10%), Method: PREINCUBATION) is reported as “inactive; negative”. The mutagenic call (Test System: AMES SALMONELLA TYPHIMURIUM, Strain/Indicator: TA100, Metabolic Activation: HAMSTER, LIVER, S-9, AROCLOR 1254 (10%), Method: PREINCUBATION) was “inactive; negative”, the mutagenic call [2] was “inactive; negative” and the mutagenic call (Test System: AMES SALMONELLA TYPHIMURIUM, Strain/Indicator: TA100, Metabolic Activation: RAT, LIVER, S-9, AROCLOR 1254 (10%), Method: PREINCUBATION) was “inactive; negative”. The mutagenic call (Test System: AMES SALMONELLA TYPHIMURIUM, Strain/Indicator: TA1535, Metabolic Activation: HAMSTER, LIVER, S-9, AROCLOR 1254 (10%), Method: PREINCUBATION) was “inactive; negative”, the mutagenic call [3] was “inactive; negative” and the mutagenic call (Test System: AMES SALMONELLA TYPHIMURIUM, Strain/Indicator: TA1535, Metabolic Activation: RAT, LIVER, S-9, AROCLOR 1254 (10%), Method: PREINCUBATION) was “inactive; negative”. For the same compound, the mutagenic call (Test System: AMES SALMONELLA TYPHIMURIUM, Strain/Indicator: TA1537, Metabolic Activation: HAMSTER, LIVER, S-9, AROCLOR 1254 (10%), Method: PREINCUBATION) was “inactive; negative”, the mutagenic call [4] was “inactive; negative” and the mutagenic call (Test System: AMES SALMONELLA TYPHIMURIUM, Strain/Indicator: TA1537, Metabolic Activation: RAT, LIVER, S-9, AROCLOR 1254 (10%), Method: PREINCUBATION) was “inactive; negative”.

CS(=O)(=O)Nc1ccc(Nc2c3ccc(N=[N+]=[N-])cc3nc3cc(N=[N+]=[N-])ccc23)cc1 was tested, and the mutagenic call (Test System: AMES SALMONELLA TYPHIMURIUM, Strain/Indicator: TA1537, Metabolic Activation: NONE, Method: STANDARD PLATE) was “active; positive”.

For Fc1ccnc2ccccc12, the mutagenic call (Test System: AMES SALMONELLA TYPHIMURIUM, Strain/Indicator: TA100, Metabolic Activation: RAT, LIVER, S-9, AROCLOR 1254, Method: PREINCUBATION) was “active; positive” and the mutagenic call (Test System: UDS RODENT HEPATOCYTES, Strain/Indicator: THY INCORP (NON-S-PHASE), Metabolic Activation: NONE, Method: AUTORADIOGRAPHY) was “inactive; negative”.

For O=C(Nc1ccc(F)cc1)c1csc([N+](=O)[O-])c1, the mutagenic call [8] was “active; positive” and the mutagenic call [7] was “active; positive”.

With CC(C)(C)N.CC(C)(C)N.[Cl][Pt][Cl] the mutagenic call (Test System: AMES SALMONELLA TYPHIMURIUM, Strain/Indicator: TA92, Metabolic Activation: NONE, Method: STANDARD PLATE) was “inactive; negative”, the mutagenic call [8] was “active; positive” and the mutagenic call [7] was “active; positive”. For the same compound, the mutagenic call (Test System: AMES SALMONELLA TYPHIMURIUM, Strain/Indicator: TA2410, Metabolic Activation: NONE, Method: STANDARD PLATE) was “active; positive”.

O=C1CNC(=O)N1 was tested, and the mutagenic call (Test System: AMES SALMONELLA TYPHIMURIUM, Strain/Indicator: TA97, Metabolic Activation: NONE, Method: STANDARD PLATE) was “inactive; negative”, the mutagenic call (Test System: AMES SALMONELLA TYPHIMURIUM, Strain/Indicator: TA97, Metabolic Activation: RAT, LIVER, S-9, AROCLOR 1254, Method: STANDARD PLATE) was “inactive; negative” and the mutagenic call [8] was “inactive; negative”. For the same compound, the mutagenic call [5] was “inactive; negative”, the mutagenic call [7] was “inactive; negative” and the mutagenic call [6] was “inactive; negative”. For the same compound, the mutagenic call (Test System: AMES SALMONELLA TYPHIMURIUM, Strain/Indicator: TA102, Metabolic Activation: NONE, Method: STANDARD PLATE) was “inactive; negative” and the mutagenic call (Test System: AMES SALMONELLA TYPHIMURIUM, Strain/Indicator: TA102, Metabolic Activation: RAT, LIVER, S-9, AROCLOR 1254, Method: STANDARD PLATE) was “inactive; negative”.

For COc1cccc2c1C(=O)c1c(O)c3c(c(O)c1C2=O)C[C@@](O)(C(C)=O)C[C@@H]3O, the mutagenic call [8] was “active; positive”, the mutagenic call [5] was “active; positive” and the mutagenic call [7] was “inactive; negative”. The mutagenic call (Test System: AMES SALMONELLA TYPHIMURIUM, Strain/Indicator: TA1538, Metabolic Activation: NONE, Method: STANDARD PLATE) was “inactive; negative”.
